IC50 and CC50 data for 28 compounds are collected here from ChEMBL document CHEMBL3286212, “Synthesis of isoquinolinone-based tricycles as novel poly(ADP-ribose) polymerase-1 (PARP-1) inhibitors” (Bioorg Med Chem Lett, 2014).

For data set [1], the target named is Poly [ADP-ribose] polymerase 1 (Homo sapiens, UniProt P09874). In words: Inhibition of human recombinant PARP-1 after 1 hr by ELISA. Background: An ELISA detects its analyte on a solid surface through an enzyme-linked reagent.
Data set [2] can be described thus: Cytotoxicity against BRCA1-deficient human MDA-MB-436 cells by sulforhodamine B assay. In kind it is functional.
Data set [3] is described as follows: Cytotoxicity against BRCA2-deficient Chinese hamster VC8 cells by sulforhodamine B assay. In kind it is functional. Conditions: Cricetulus griseus, V-C8.
Data set [4] is described as follows: Cytotoxicity against Chinese hamster V79 cells by sulforhodamine B assay. In kind it is cell-based, Cricetulus griseus. (Sulforhodamine B stains cellular protein and so reports cell mass.)

By IC50 is commonly meant the concentration at which inhibition is half-maximal. What is called CC50 is the concentration at which the toxic effect on the cells reaches its halfway point. Low values mean harm at low concentration, high ones better tolerance by the cells.

Molecules are shown by their SMILES.

Poly [ADP-ribose] polymerase 1, sequence (P09874 whole entry): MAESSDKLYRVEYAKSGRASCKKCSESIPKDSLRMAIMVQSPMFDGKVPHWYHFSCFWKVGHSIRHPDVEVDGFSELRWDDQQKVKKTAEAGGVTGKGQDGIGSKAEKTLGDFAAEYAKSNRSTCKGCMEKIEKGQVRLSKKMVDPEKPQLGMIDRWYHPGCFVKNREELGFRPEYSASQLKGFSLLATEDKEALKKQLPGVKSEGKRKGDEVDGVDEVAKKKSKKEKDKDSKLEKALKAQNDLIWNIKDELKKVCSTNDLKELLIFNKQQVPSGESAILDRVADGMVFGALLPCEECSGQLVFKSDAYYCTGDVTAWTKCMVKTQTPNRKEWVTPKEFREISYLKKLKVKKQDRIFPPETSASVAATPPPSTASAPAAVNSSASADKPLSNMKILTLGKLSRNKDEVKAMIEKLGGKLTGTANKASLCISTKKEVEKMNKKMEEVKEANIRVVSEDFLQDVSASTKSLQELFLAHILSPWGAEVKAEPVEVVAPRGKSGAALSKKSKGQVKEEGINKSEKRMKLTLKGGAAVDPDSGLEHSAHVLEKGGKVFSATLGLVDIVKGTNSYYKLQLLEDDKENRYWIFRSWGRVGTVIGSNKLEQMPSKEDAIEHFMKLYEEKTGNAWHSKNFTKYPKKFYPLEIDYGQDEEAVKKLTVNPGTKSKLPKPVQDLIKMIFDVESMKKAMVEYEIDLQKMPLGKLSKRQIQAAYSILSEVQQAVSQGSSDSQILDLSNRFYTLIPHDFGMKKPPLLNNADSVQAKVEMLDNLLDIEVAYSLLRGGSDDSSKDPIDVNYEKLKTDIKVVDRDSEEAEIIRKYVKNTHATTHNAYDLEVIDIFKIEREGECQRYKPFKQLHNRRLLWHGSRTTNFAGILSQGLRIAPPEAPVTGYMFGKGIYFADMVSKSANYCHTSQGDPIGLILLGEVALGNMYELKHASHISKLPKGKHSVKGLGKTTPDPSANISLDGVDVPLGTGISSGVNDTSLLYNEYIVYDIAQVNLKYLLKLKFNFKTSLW

For the compound `Cn1c(C(=O)N2CCNCC2)cc2[nH]c(=O)c3ccccc3c21`, the 50% inhibitory concentration (IC50) in data set [1] is 44 nM.

Turning to `CN1CCCN(C(=O)c2cc3c(n2C)-c2ccccc2C(=O)NC3)CC1`, the IC50 in data set [1] worked out at 10000 nM.

On to `Cc1c(C(=O)N2CCC(N(C)C)CC2)sc2c1[nH]c(=O)c1ccccc12`, for which the figures for the CC50 in data set [2], in data set [3] and in data set [4] were over 10000 nM, over 10 µM and over 10 µM, respectively. Further, the IC50 in data set [1] was 29 nM.

In the case of `Cn1c(C(=O)N2CCN(Cc3ccccc3)CC2)cc2[nH]c(=O)c3ccccc3c21`, the 50% inhibitory concentration (IC50) in data set [1] is 860 nM.

On to `COc1cccc(CN2CCN(C(=O)c3cc4[nH]c(=O)c5ccccc5c4n3C)CC2)c1`, for which the half-maximal inhibitory concentration (IC50) in data set [1] is 400 nM.

On to `CN1CCN(C(=O)c2cc3c(n2C)-c2ccccc2C(=O)NC3)CC1`, for which, in data set [1], the IC50 was over 10000 nM.

`Cn1c(C(=O)NCCN2CCCC2)cc2c1-c1ccccc1C(=O)NC2`: the IC50 in data set [1] is 8170 nM.

Regarding `CCN1CCN(C(=O)c2sc3c([nH]c(=O)c4ccccc43)c2C)CC1`, the half-maximal cytotoxic concentration (CC50) was 3480 nM in data set [2], over 10 µM in data set [3] and over 10 µM in data set [4]. In data set [1], the IC50 was found to be 79 nM.

In the case of `Cn1c(C(=O)N2CCCNCC2)cc2[nH]c(=O)c3ccccc3c21`, the CC50 is 1190 nM in data set [2], over 10 µM in data set [3] and over 10 µM in data set [4]. Besides, in data set [1], the concentration for half-maximal inhibition (IC50) is 100 nM.

Consider `CN1CCCN(C(=O)c2cc3[nH]c(=O)c4ccccc4c3n2C)CC1`, for which, in data set [1], the half-inhibitory concentration (IC50) worked out at 200 nM.

Take `CN(C)CCNC(=O)c1cc2[nH]c(=O)c3ccccc3c2n1C`: the IC50 in data set [1] worked out at 1100 nM.

Consider `Cn1c(C(=O)N2CCN(Cc3ccc([N+](=O)[O-])cc3)CC2)cc2[nH]c(=O)c3ccccc3c21`, for which the IC50 in data set [1] was over 10000 nM.

Turning to `CN(C)CCCNC(=O)c1cc2[nH]c(=O)c3ccccc3c2n1C`, in data set [1], the concentration for half-maximal inhibition (IC50) is 300 nM.

`Cc1c(C(=O)NCCN2CCCC2)sc2c1[nH]c(=O)c1ccccc12`: the IC50 in data set [1] turned out to be 248 nM.

Regarding `Cn1c(C(=O)N2CC=C(c3ccc(F)cc3)CC2)cc2c1-c1ccccc1C(=O)NC2`, the IC50 in data set [1] stood at 1670 nM.

On to `CN1CCN(C(=O)c2cc3[nH]c(=O)c4ccccc4c3n2C)CC1`, for which the half-inhibitory concentration (IC50) in data set [1] is 119 nM.

Regarding `Cc1c(C(=O)N2CC=C(c3ccc(F)cc3)CC2)sc2c1[nH]c(=O)c1ccccc12`, the concentration for half-maximal inhibition (IC50) in data set [1] came to 133 nM.

`CC(C)S(=O)(=O)N1CCN(C(=O)c2cc3[nH]c(=O)c4ccccc4c3n2C)CC1`: the concentration for half-maximal inhibition (IC50) in data set [1] is 600 nM.

In the case of `Cn1c(C(=O)N2CCCNCC2)c(Cl)c2[nH]c(=O)c3ccccc3c21`, the IC50 in data set [1] turned out to be 100 nM.

Consider `Cn1c(C(=O)NCCCN2CCOCC2)cc2[nH]c(=O)c3ccccc3c21`, for which the IC50 in data set [1] is 100 nM.

Consider `Cn1c(C(=O)N2CCCNCC2)c(Br)c2[nH]c(=O)c3ccccc3c21`, for which the half-inhibitory concentration (IC50) in data set [1] turned out to be 100 nM.

As to `Cc1c(C(=O)N2CCN(C)CC2)sc2c1[nH]c(=O)c1ccccc12`, the IC50 in data set [1] amounted to 231 nM.

Turning to `O=C(c1cc(Cc2n[nH]c(=O)c3ccccc23)ccc1F)N1CCN(C(=O)C2CC2)CC1` [OLAPARIB], the CC50 in data set [2] was found to be 16.9 nM; in data set [3], 0.468 µM; in data set [4], 8.98 µM.

For the compound `Cc1c(C(=O)NCCN2CCN(C)CC2)sc2c1[nH]c(=O)c1ccccc12`, the IC50 in data set [1] is 284 nM.

In the case of `CN(C)C1CCN(C(=O)c2cc3c(n2C)-c2ccccc2C(=O)NC3)CC1`, the IC50 in data set [1] is 6430 nM.

`Cc1c(C(=O)N2CCN(C(C)C)CC2)sc2c1[nH]c(=O)c1ccccc12`: the cytotoxic concentration (CC50) is over 10000 nM in data set [2], over 10 µM in data set [3] and over 10 µM in data set [4]. The IC50 in data set [1] worked out at 86 nM.

With `CC(C)N1CCN(C(=O)c2cc3[nH]c(=O)c4ccccc4c3n2C)CC1`, in data set [1], the concentration for half-maximal inhibition (IC50) is 830 nM.

As for `Cc1c(C(=O)NCCN2CCOCC2)sc2c1[nH]c(=O)c1ccccc12`, in data set [1], the IC50 was determined as 83 nM.
